From patent US5972898A, “3',3-N-bis-substituted macrolide LHRH antagonists” (Abbott Laboratories, priority 1998, dated 1999)

Experiments:
[1] = target: T1, LHRH rat pituitary receptor (Rattus norvegicus, UniProt P30969); test: LHRH rat pituitary receptor binding (pKI); details: in vitro; for Ki: read-out: pKI (receptor binding affinity) (converted)
T1 construct: from tissue; host or cells: rat pituitary
T1 sequence (P30969 1-327): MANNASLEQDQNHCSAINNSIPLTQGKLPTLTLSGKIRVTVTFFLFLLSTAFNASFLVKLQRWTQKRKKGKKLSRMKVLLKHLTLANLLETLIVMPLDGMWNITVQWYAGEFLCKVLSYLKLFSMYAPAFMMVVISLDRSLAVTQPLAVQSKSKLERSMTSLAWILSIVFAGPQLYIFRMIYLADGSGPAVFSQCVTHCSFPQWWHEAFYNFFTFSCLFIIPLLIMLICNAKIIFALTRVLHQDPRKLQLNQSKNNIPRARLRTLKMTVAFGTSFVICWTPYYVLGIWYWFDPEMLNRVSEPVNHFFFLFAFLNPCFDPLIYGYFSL
Description: Representative compounds of the present invention were evaluated in in vitro tests for LHRH rat pituitary receptor binding (pKI) and for LH inhibition from rat pituitary cells for antagonist potency (pA2). […] The receptor binding affinity (pKI) is the negative equilibrium dissociation constants.

[2] = target: T2, rat pituitary cells (Rattus norvegicus, UniProt P30969); test: LH inhibition from rat pituitary cells for antagonist potency (pA2); format: cell-based; details: negative log of antagonist concentration shifting the leuprolide response curve to two-fold higher concentration
T2 construct: endogenous in cells; host or cells: rat pituitary cells
T2 sequence (P30969 1-327): T1 sequence (P30969 1-327)
Description: Representative compounds of the present invention were evaluated in in vitro tests for LHRH rat pituitary receptor binding (pKI) and for LH inhibition from rat pituitary cells for antagonist potency (pA2). The tests employed the methods detailed in F. Haviv, et al. J. Med. Chem., 2340-2344 (1989). The receptor binding affinity (pKI) is the negative equilibrium dissociation constants.
The pA2 value is the negative logarithm of the concentration of antagonist which shifts the response curve produced by the agonist leuprolide to two-fold higher concentration. Leuprolide is the LHRH agonist having the structure pyro-Glu^1 -His^2 -Trp^3 -Ser^4 -Tyr^5 -D-Leu^6 -Leu^7 -Arg^8 -Pro^9 -NHEt and is disclosed and claimed in U.S. Pat. No. 4,005,063. Typically pA2 values of 7.0 or greater are indicative of good LHRH antagonist potency.

Compound | pKI (receptor binding affinity) [1] | pA2 [2] | Ki [1] | Kb [2]
CC[C@H]1OC(=O)[C@H](C)[C@@H](O[C@H]2C[C@@](C)(OC)[C@@H](O)[C@H](C)O2)[C@H](C)[C@@H](O[C@@H]2O[C@H](C)C[C@H](N(C3CCC3)C3CCC3)[C@H]2O)[C@](C)(OC)C[C@@H](C)C(=O)[C@H](C)[C@H]2N(CCc3ccc(Cl)c(Cl)c3)C(=O)O[C@]12C [Example 2] |  |  | 3.16 nM | 5.37 nM
CC[C@H]1OC(=O)[C@H](C)[C@@H](O[C@H]2C[C@@](C)(OC)[C@@H](O)[C@H](C)O2)[C@H](C)[C@@H](O[C@@H]2O[C@H](C)C[C@H](N(C3CCC3)C3CCC3)[C@H]2O)[C@](C)(OC)C[C@@H](C)C(=O)[C@H](C)[C@H]2N(CCc3ccc(Cl)cc3)C(=O)O[C@]12C [Example 4, 3',3'-N-Bisdesmethyl-3',3'-N-biscyclobutyl-11-deoxy-11-[carboxy-(4-chlorophenethylamino)]-6-O-methyl-erythromycin A 11,12-(cyclic carbamate)] |  |  | 2.4 nM | 0.126 nM
CC[C@H]1OC(=O)[C@H](C)[C@@H](O[C@H]2C[C@@](C)(OC)[C@@H](O)[C@H](C)O2)[C@H](C)[C@@H](O[C@@H]2O[C@H](C)C[C@H](N(C(C)C)C3CCC3)[C@H]2O)[C@](C)(OC)C[C@@H](C)C(=O)[C@H](C)[C@H]2N(CCc3ccc(Cl)cc3)C(=O)O[C@]12C [Example 5, 3',3'-N-Bisdesmethyl-3'-N-cyclobutyl-3'-N-isopropyl-11-deoxy-11-[carboxy-(4-chlorophenethylamino)]-6-O-methyl-erythromycin A 11,12-(cyclic carbamate)] |  |  | 0.832 nM | 0.832 nM
CC[C@H]1OC(=O)[C@H](C)[C@@H](O[C@H]2C[C@@](C)(OC)[C@@H](O)[C@H](C)O2)[C@H](C)[C@@H](O[C@@H]2O[C@H](C)C[C@H](N(CC3CC3)CC3CC3)[C@H]2O)[C@](C)(OC)C[C@@H](C)C(=O)[C@H](C)[C@H]2N(CCc3ccc(Cl)c(F)c3)C(=O)O[C@]12C [Example 13, 3',3'-N-Bisdesmethyl-3',3'-N-biscyclopropylmethyl-11-deoxy-11-[carboxy-(4-chloro-3-fluorophenethylamino)]-6-O-methyl-erythromycin A 11,12-(cyclic carbamate)] |  |  | 1.15 nM | 0.295 nM
CC[C@H]1OC(=O)[C@H](C)[C@@H](O[C@H]2C[C@@](C)(OC)[C@@H](O)[C@H](C)O2)[C@H](C)[C@@H](O[C@@H]2O[C@H](C)C[C@H](N(C3CCC3)C3CCC3)[C@H]2O)[C@](C)(OC)C[C@@H](C)C(=O)[C@H](C)[C@H]2N(CCc3ccc(F)c(Cl)c3)C(=O)O[C@]12C [Example 14, 3',3'-N-Bisdesmethyl-3',3'-N-biscyclobutyl-11-deoxy-11-[carboxy-(3-chloro-4-fluorophenethylamino)]-O-methyl-erythromycin A 11,12-(cyclic carbamate)] |  |  | 0.251 nM | 0.759 nM

The next lines start with the values.

pKI (receptor binding affinity) [1] | pA2 [2] | Ki [1] | Kb [2] | Compound
9.40 | 8.34 |  |  | 3',3'-N-Bisdesmethyl-3',3'-N-biscyclobutyl-11-deoxy-11-[carboxy-(3,4-difluorophenethylamino)]-6-O-methyl-erythromycin A 11,12-(cyclic carbamate) [Example 18]
 |  | 3.16 nM | 1.55 nM | CC[C@H]1OC(=O)[C@H](C)[C@@H](O[C@H]2C[C@@](C)(OC)[C@@H](O)[C@H](C)O2)[C@H](C)[C@@H](O[C@@H]2O[C@H](C)C[C@H](N(CC3CC3)CC3CC3)[C@H]2O)[C@](C)(OC)C[C@@H](C)C(=O)[C@H](C)[C@H]2N(CCc3ccc(F)c(F)c3)C(=O)O[C@]12C [Example 17, 3',3'-N-Bisdesmethyl-3',3'-N-biscyclopropylmethyl-11-deoxy-11-[carboxy-(3,4-difluorophenethylamino)]-6-O-methyl-erytromycin A 11,12-(cyclic carbamate)]
